Results on two compounds are retold here after ChEMBL document CHEMBL1139660, “Imidazo[1,2-b][1,2,4]triazines as alpha2/alpha3 subtype selective GABA A agonists for the treatment of anxiety” (Bioorg Med Chem Lett, 2006).

The nature of data set [1]: Plasma clearance in Beagle dog at 1 mg/kg, iv or 1 mg/kg, po. In kind it is ADME, organism-based, Canis lupus familiaris.
The target of data set [2] is T1, GABA-A receptor; alpha-2/beta-3/gamma-2 (Homo sapiens, UniProt P18507+P28472+P47869).
T1 sequence (P18507 whole entry): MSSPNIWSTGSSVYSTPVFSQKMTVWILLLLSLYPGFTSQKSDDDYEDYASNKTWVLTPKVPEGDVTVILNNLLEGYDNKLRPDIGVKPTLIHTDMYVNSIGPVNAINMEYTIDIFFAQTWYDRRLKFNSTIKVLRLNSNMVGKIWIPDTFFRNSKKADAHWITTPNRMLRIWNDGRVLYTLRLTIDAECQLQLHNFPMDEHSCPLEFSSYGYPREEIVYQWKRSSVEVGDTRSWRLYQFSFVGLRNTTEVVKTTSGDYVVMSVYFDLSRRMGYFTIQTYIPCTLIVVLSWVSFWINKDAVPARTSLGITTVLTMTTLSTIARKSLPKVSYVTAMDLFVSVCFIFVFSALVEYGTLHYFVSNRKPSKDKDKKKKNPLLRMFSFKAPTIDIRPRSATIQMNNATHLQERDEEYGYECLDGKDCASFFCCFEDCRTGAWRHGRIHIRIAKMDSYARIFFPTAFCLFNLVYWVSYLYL
T1 sequence (P28472 whole entry): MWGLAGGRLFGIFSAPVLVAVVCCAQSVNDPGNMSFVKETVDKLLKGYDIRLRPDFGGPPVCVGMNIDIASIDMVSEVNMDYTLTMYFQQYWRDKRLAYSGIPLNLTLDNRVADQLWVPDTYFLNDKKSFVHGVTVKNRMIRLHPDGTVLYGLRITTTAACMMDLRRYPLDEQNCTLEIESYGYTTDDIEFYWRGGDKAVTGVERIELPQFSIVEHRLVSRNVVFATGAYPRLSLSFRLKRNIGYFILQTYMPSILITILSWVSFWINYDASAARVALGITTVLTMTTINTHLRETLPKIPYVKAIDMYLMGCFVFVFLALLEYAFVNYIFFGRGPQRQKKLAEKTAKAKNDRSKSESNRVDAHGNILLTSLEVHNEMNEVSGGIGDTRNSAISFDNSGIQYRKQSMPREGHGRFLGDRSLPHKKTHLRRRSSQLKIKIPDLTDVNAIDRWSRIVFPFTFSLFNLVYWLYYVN
T1 sequence (P47869 whole entry): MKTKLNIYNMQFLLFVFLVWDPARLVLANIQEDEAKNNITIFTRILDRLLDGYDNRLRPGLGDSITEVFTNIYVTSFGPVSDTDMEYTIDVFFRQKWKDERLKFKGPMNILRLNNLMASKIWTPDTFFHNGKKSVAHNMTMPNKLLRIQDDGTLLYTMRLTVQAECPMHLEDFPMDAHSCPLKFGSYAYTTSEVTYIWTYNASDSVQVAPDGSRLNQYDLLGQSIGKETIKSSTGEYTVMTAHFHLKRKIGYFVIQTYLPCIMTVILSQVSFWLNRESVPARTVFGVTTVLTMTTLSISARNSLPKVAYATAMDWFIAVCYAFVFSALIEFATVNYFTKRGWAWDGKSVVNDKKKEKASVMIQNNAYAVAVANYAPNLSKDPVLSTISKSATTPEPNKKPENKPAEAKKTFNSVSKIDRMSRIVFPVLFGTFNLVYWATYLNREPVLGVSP
In words: Displacement of [3H]Ro 15-1788 from recombinant human GABA-Aalpha2 receptor plus beta-3-gamma-2 expressed in mouse L(tk-) cells. In kind it is cell-based.

The nature of data set [3]: Half life in Sprague-Dawley rat at 1 mg/kg, iv or 1 mg/kg, po. The settings on record: in vivo. In kind it is ADME, organism-based.
Data set [4] in a line: Volume of distribution in Beagle dog at 1 mg/kg, iv or 1 mg/kg, po. The data set is classed as ADME, organism-based, Canis lupus familiaris. Particulars: in vivo, read-out: Vdss.
Data set [5] concerns the target GABA-A receptor; alpha-5/beta-3/gamma-2 (Homo sapiens) (UniProt P18507+P28472+P31644). Kind of data set: Efficacy against recombinant human GABA-Aalpha5 receptor plus beta3gamma2 expressed in L(tk-) cells by whole cell patch clamp method relative to chlordiazepoxide. The data set is classed as functional, cell-based.
The nature of data set [6]: Oral bioavailability in Sprague-Dawley rat at 1 mg/kg, iv or 1 mg/kg, po. The data set is classed as ADME, organism-based. Particulars: in vivo.
The target in data set [7] is GABA-A receptor; alpha-2/beta-3/gamma-2 (Homo sapiens) (UniProt P18507+P28472+P47869). In words: Efficacy against recombinant human GABA-Aalpha2 receptor plus beta-3-gamma-2 expressed in L(tk-) cells by whole cell patch clamp method relative to chlordiazepoxide. The data set is classed as functional, cell-based. Background: In patch-clamp work, channel activity is measured electrically.

Data set [8] is described as follows: Oral bioavailability in Beagle dog at 1 mg/kg, iv or 1 mg/kg, po. In kind it is ADME, organism-based, Canis lupus familiaris. The settings on record: in vivo.
Data set [9] in a line: Volume of distribution in Sprague-Dawley rat at 1 mg/kg, iv or 1 mg/kg, po. In kind it is ADME, organism-based. The settings on record: in vivo, read-out: Vdss.
For data set [10], the target named is GABA-A receptor; alpha-3/beta-3/gamma-2 (Homo sapiens) (UniProt P18507+P28472+P34903). In words: Efficacy against recombinant human GABA-Aalpha3 receptor plus beta-3-gamma-2 expressed in L(tk-) cells by whole cell patch clamp method relative to chlordiazepoxide. In kind it is functional, cell-based.
Data set [11] has as its target GABA-A receptor; alpha-1/beta-3/gamma-2 (Homo sapiens) (UniProt P14867+P18507+P28472). In words: Efficacy against recombinant human GABA-Aalpha1 receptor plus beta-3-gamma-2 expressed in L(tk-) cells by whole cell patch clamp method. The data set is classed as functional, cell-based.
Data set [12] concerns the target T2, GABA-A receptor; alpha-3/beta-3/gamma-2 (Homo sapiens, UniProt P18507+P28472+P34903).
T2 sequence (P18507 whole entry): T1 sequence (P18507 whole entry)
T2 sequence (P28472 whole entry): T1 sequence (P28472 whole entry)
T2 sequence (P34903 whole entry): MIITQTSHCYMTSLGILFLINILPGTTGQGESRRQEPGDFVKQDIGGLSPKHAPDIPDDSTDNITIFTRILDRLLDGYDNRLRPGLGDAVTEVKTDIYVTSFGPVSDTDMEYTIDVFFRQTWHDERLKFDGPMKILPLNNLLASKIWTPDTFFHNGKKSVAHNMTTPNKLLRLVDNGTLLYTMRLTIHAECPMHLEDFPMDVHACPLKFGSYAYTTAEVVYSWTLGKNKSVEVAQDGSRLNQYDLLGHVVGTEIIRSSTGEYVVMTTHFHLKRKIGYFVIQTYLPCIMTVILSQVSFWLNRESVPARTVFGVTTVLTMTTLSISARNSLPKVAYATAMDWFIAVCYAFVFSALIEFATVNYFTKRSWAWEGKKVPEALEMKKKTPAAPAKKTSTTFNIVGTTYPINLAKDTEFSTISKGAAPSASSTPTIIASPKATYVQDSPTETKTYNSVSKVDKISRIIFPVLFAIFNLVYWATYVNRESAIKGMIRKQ
Kind of data set: Displacement of [3H]Ro 15-1788 from recombinant human GABA-Aalpha3 receptor plus beta-3-gamma-2 expressed in L(tk-) cells. In kind it is cell-based.

Structures are written as SMILES.

One may read the Ki as the dissociation constant of the complex between target and ligand, obtained from inhibition or displacement. As usually defined, the half-life is the time needed for the level to fall by half in the phase considered. Take `CC(C)(O)c1cnn2c(-c3ccc(F)c(-c4ncc(F)cc4F)c3)cnc2n1`: the clearance in [1] was 0.5 mL/min/kg. For the same compound, the Ki in [2] came to 3.44 nM; in [12], 4.5 nM. Besides, the half-life in data set [3] is 22 h. Also, the Vd in data set [4] was 2.3 L/kg; in data set [9], 2.2 L/kg. The Efficacy in data set [5] turned out to be 0.09; in data set [7], 0.39; in [10], 0.5; in data set [11] it was 0. Besides, the bioavailability in [6] turned out to be 69%; in [8] it was 64%.

`CC(C)(O)c1cnn2c(-c3ccc(F)c(-c4ncccc4C#N)c3)cnc2n1` had a clearance in data set [1] of 2.2 mL/min/kg. The inhibition constant (Ki) is 8.43 nM in [2] and 9.53 nM in data set [12]. The compound further gave a half-life in [3] of 7.9 h. In addition, the Vd in data set [4] worked out at 1.5 L/kg; in data set [9], 1.7 L/kg. Besides, the Efficacy in data set [5] is 0.2; in [7] it was 0.37; in data set [10], 0.69; in data set [11], 0.01. Moreover, the results for the bioavailability in [6] and in data set [8] were 102% and 99%, respectively.
